Reference: PubChem BioAssay (NCI)
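Following 48 hours of exposure in 96-well plates, responses at five concentrations were used to interpolate endpoints linearly. The concentration for full growth arrest is given as TGI.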

system: HCC-2998 colon; experiment: NCI anticancer screen, dose series, 48 h

SMILES | TGI [µM]
CCOC(=O)C1=C(C)N(Cc2ccccc2)C2(O)C=CC(=O)C3=C(O)c4ccccc4C(=O)C312 (stereo not drawn) | 31.1
COc1cc(-c2cc(=O)c3c(O)c(OC)c(OC)c(OC)c3o2)cc(OC)c1OC | > 100
COc1cc(/C=N/NC2=NCCN2)ccc1O | > 100
O=C(NCCCCCN1CCC2(CCCCC2)CC1)C(C1CCCCC1)C1CCCCC1 | 2.57
C/C(=N\NC(N)=S)c1ccc(C2CCCCC2)cc1 | 42
CC[C@@]1(O)C(=O)OCc2c1cc1n(c2=O)Cc2c-1nc1ccccc1c2/C=N\NC(=O)C(N)Cc1c[nH]c2ccccc12 (stereo partly drawn) | > 65.7
CCCCCCCCCCCCCCCCOCC(O)CO (stereo not drawn) | 32.2

system: M19-MEL melanoma; experiment: NCI anticancer screen, dose series, 48 h

SMILES | TGI [µM]
C/C(=N\NC(N)=S)c1ccc(C2CCCCC2)cc1 | > 100

system: U251 CNS; experiment: NCI anticancer screen, dose series, 48 h

SMILES | TGI [µM]
CCOC(=O)C1=C(C)N(Cc2ccccc2)C2(O)C=CC(=O)C3=C(O)c4ccccc4C(=O)C312 (stereo not drawn) | 38.5
COc1cc(-c2cc(=O)c3c(O)c(OC)c(OC)c(OC)c3o2)cc(OC)c1OC | > 22.2
COc1cc(/C=N/NC2=NCCN2)ccc1O | > 100
O=C(NCCCCCN1CCC2(CCCCC2)CC1)C(C1CCCCC1)C1CCCCC1 | 8.53
C/C(=N\NC(N)=S)c1ccc(C2CCCCC2)cc1 | 39.9
CC[C@@]1(O)C(=O)OCc2c1cc1n(c2=O)Cc2c-1nc1ccccc1c2/C=N\NC(=O)C(N)Cc1c[nH]c2ccccc12 (stereo partly drawn) | 5.16
CCCCCCCCCCCCCCCCOCC(O)CO (stereo not drawn) | 36.2

system: LOX IMVI melanoma; experiment: NCI anticancer screen, dose series, 48 h

SMILES | TGI [µM]
CCOC(=O)C1=C(C)N(Cc2ccccc2)C2(O)C=CC(=O)C3=C(O)c4ccccc4C(=O)C312 (stereo not drawn) | 36.6
COc1cc(-c2cc(=O)c3c(O)c(OC)c(OC)c(OC)c3o2)cc(OC)c1OC | > 100
COc1cc(/C=N/NC2=NCCN2)ccc1O | > 100
O=C(NCCCCCN1CCC2(CCCCC2)CC1)C(C1CCCCC1)C1CCCCC1 | 7.02
CC[C@@]1(O)C(=O)OCc2c1cc1n(c2=O)Cc2c-1nc1ccccc1c2/C=N\NC(=O)C(N)Cc1c[nH]c2ccccc12 (stereo partly drawn) | 3.27
CCCCCCCCCCCCCCCCOCC(O)CO (stereo not drawn) | 33.4

system: OVCAR-8 ovarian; experiment: NCI anticancer screen, dose series, 48 h

SMILES | TGI [µM]
CCOC(=O)C1=C(C)N(Cc2ccccc2)C2(O)C=CC(=O)C3=C(O)c4ccccc4C(=O)C312 (stereo not drawn) | 39
COc1cc(-c2cc(=O)c3c(O)c(OC)c(OC)c(OC)c3o2)cc(OC)c1OC | > 100
COc1cc(/C=N/NC2=NCCN2)ccc1O | > 100
O=C(NCCCCCN1CCC2(CCCCC2)CC1)C(C1CCCCC1)C1CCCCC1 | 7.23
C/C(=N\NC(N)=S)c1ccc(C2CCCCC2)cc1 | 36.8
CC[C@@]1(O)C(=O)OCc2c1cc1n(c2=O)Cc2c-1nc1ccccc1c2/C=N\NC(=O)C(N)Cc1c[nH]c2ccccc12 (stereo partly drawn) | 25
CCCCCCCCCCCCCCCCOCC(O)CO (stereo not drawn) | 35.4

system: DMS 114 small cell lung; experiment: NCI anticancer screen, dose series, 48 h

SMILES | TGI [µM]
C/C(=N\NC(N)=S)c1ccc(C2CCCCC2)cc1 | 29.9

system: NCI/ADR-RES ovarian; experiment: NCI anticancer screen, dose series, 48 h

SMILES | TGI [µM]
CCOC(=O)C1=C(C)N(Cc2ccccc2)C2(O)C=CC(=O)C3=C(O)c4ccccc4C(=O)C312 (stereo not drawn) | 0.708
COc1cc(-c2cc(=O)c3c(O)c(OC)c(OC)c(OC)c3o2)cc(OC)c1OC | > 100
COc1cc(/C=N/NC2=NCCN2)ccc1O | > 100
O=C(NCCCCCN1CCC2(CCCCC2)CC1)C(C1CCCCC1)C1CCCCC1 | 14.9
CC[C@@]1(O)C(=O)OCc2c1cc1n(c2=O)Cc2c-1nc1ccccc1c2/C=N\NC(=O)C(N)Cc1c[nH]c2ccccc12 (stereo partly drawn) | > 35.6
CCCCCCCCCCCCCCCCOCC(O)CO (stereo not drawn) | 34.7

system: SK-MEL-2 melanoma; experiment: NCI anticancer screen, dose series, 48 h

SMILES | TGI [µM]
CCOC(=O)C1=C(C)N(Cc2ccccc2)C2(O)C=CC(=O)C3=C(O)c4ccccc4C(=O)C312 (stereo not drawn) | 30.4
COc1cc(-c2cc(=O)c3c(O)c(OC)c(OC)c(OC)c3o2)cc(OC)c1OC | > 100
COc1cc(/C=N/NC2=NCCN2)ccc1O | > 100
O=C(NCCCCCN1CCC2(CCCCC2)CC1)C(C1CCCCC1)C1CCCCC1 | 4.82
C/C(=N\NC(N)=S)c1ccc(C2CCCCC2)cc1 | 32.8
CC[C@@]1(O)C(=O)OCc2c1cc1n(c2=O)Cc2c-1nc1ccccc1c2/C=N\NC(=O)C(N)Cc1c[nH]c2ccccc12 (stereo partly drawn) | 36.3
CCCCCCCCCCCCCCCCOCC(O)CO (stereo not drawn) | 40.1

system: SF-268 CNS; experiment: NCI anticancer screen, dose series, 48 h

SMILES | TGI [µM]
CCOC(=O)C1=C(C)N(Cc2ccccc2)C2(O)C=CC(=O)C3=C(O)c4ccccc4C(=O)C312 (stereo not drawn) | 23.7
COc1cc(-c2cc(=O)c3c(O)c(OC)c(OC)c(OC)c3o2)cc(OC)c1OC | > 100
COc1cc(/C=N/NC2=NCCN2)ccc1O | > 100
O=C(NCCCCCN1CCC2(CCCCC2)CC1)C(C1CCCCC1)C1CCCCC1 | 12.5
C/C(=N\NC(N)=S)c1ccc(C2CCCCC2)cc1 | > 100
CC[C@@]1(O)C(=O)OCc2c1cc1n(c2=O)Cc2c-1nc1ccccc1c2/C=N\NC(=O)C(N)Cc1c[nH]c2ccccc12 (stereo partly drawn) | 19.6
